Ends that are not written are not given here.

We go through one sequence from patent US20250304633A1, “PEPTIDE HAVING ANTIMICROBIAL ACTIVITY” (CABOSSE NATURALS NV, priority 2022, published 2025).

Holding throughout (assay type): cell-based
One experiment deals with tested fungal species. Nature of the experiment: MIC assays, all tested fungal species. The following applies: all the tested fungal species. Here is the method:
(§1) The antimicrobial potential of the peptide described herein was compared with the activity of, two other AMPs, TcAMP1 and TcAMP2 as discussed in WO1998027805, and antibiotics or fungicides. Comparative MIC assays were carried out against several bacterial and fungal species (Table 1).
(§2) Peptides according to SEQ ID N° 1, SEQ ID N° 4, and SEQ ID N° 5 were serially diluted in order to create a concentration sequence ranging from 0.39 μg/ml to […].
(§3) Pantoea, Staphylococcus, and Listeria were cultured in Trypticase Soy Broth (TSY) medium consisting of 1.7% casein peptone, 0.3% soy peptone, 0.25% glucose, 0.5% NaCl, 0.25% K2HPO4 and optionally 1.5% agar. Candida cells were cultured in Yeast Extract Peptone Dextrose (YPD) broth medium consisting of 1% yeast extract, 2% peptone, 2% glucose, and optionally 2% agar. Ceratocystis, Botrytis, Leptosphaeria, Mycosphaerella, Sclerotinia, and Verticillium were cultured in Potato Dextrose Agar (PDA) medium consisting of 2.4% Difco pre-mix broth and optionally 1.5% agar.
For the MIC assay bacteria and fungi were grown on agar plates with their respective media. […] The optical density (OD) at 600 nm was measured after one to five days and adjusted to an OD600 of 1. […]
To evaluate MICs, 96-well plates were prepared with the test antimicrobial peptides. […] Results were visually evaluated and MICs determined based on growth or no-growth. […]

In the next experiment the test system is Pantoea agglomerans. As to the method: as §1, §2, §3
(§4) For the MIC assay bacteria and fungi were grown on agar plates with their respective media. Pre-cultures were prepared by inoculating either single bacterial colonies or small pieces of fungi in 5 ml of the respective liquid medium. The optical density (OD) at 600 nm was measured after one to five days and adjusted to an OD600 of 1. This cell suspension was used to prepare 1:500 dilutions, corresponding to approximately 2×10^6 microbial cells per ml.
(§5) To evaluate MICs, 96-well plates were prepared with the test antimicrobial peptides. Each well contained 100 μl microbial cell culture, 90 μl culture medium, and 10 μl peptide or control at the corresponding dilution. The plates were incubated overnight (ON) at the optimal growth temperature for each tested organism. Results were visually evaluated and MICs determined based on growth or no-growth.
(§6) MIC assays were conducted in at least two independent replicates and with different peptide starting concentrations.

The subject of experiment [1] is Staphylococcus aureus MRSA. Here is the method: as §1, §2, §3, §4, §5, §6
The test system of a further experiment is Verticillium dahliae. As to the method:
as §1, §2, §3, §4, §5, §6

A further experiment concerns Mycosphaerella pinodes. Here is the method:
as §1, §2, §3, §4, §5, §6

For another experiment, the system named is Ceratosystis paradoxa. Here is the method:
as §1, §2, §3, §4, §5, §6

Another experiment relates to Listeria monocytogenes. Here is the method:
as §1, §2, §3, §4, §5, §6

A further experiment has as its system Leptosphaeria maculans. As to the method: as §1, §2, §3, §4, §5, §6
The next experiment has as its system Botrytis cinerea. As to the method: as §1, §2, §3, §4, §5, §6
The subject of another experiment is Sclerotinia sclerotiorum. As to the method: as §1, §2, §3, §4, §5, §6
For the next experiment, the system named is Candida albicans. Here is the method:
as §1, §2, §3, §4, §5, §6

“YGRKQYERDPRQQYEQCQRRCESEATEEREQEQCEQRCEREYKEQQRQQEEELQRQ (cysteines drawn unpaired) [SEQ ID No 1]”: in the experiment on tested fungal species, the “inhibitory effects in MIC assays” value is “inhibitory effects against all the tested fungal species”. For the same sequence, the Minimal inhibitory concentration amounted to 2.5 µg/mL with Pantoea agglomerans; 3.2 µg/mL in experiment [1]; 3.85 µg/mL with Verticillium dahliae; 2.8 µg/mL in the experiment with Mycosphaerella pinodes; 1.9 µg/mL with Ceratosystis paradoxa; 1.6 µg/mL in the experiment on Listeria monocytogenes. The Minimal inhibitory concentration in the experiment on Leptosphaeria maculans came to 12.5 µg/mL; in the experiment with Botrytis cinerea it was 3.5 µg/mL; in the experiment with Sclerotinia sclerotiorum it was 10.4 µg/mL; in the experiment with Candida albicans it was 3.85 µg/mL.
